Reference: patent US20230270718A1, “METHODS OF TREATING DIABETIC KIDNEY DISEASE” (Chinook Therapeutics, Inc., priority 2020, published 2023)
Read-outs that look alike come from different tables or passages of the source.

Assays:
DKD patients [1] = details: enrichment period, cited from earlier work
DKD patients [2] = details: cited from earlier work
DKD patients [3] = experiment: SONAR study, six week enrichment period, analyses by concomitant SGLT-2 inhibitor use; assay type: in vivo, human; set-up: key to UACR Final, Median / UACR Change, Median: UACR values in mg/g; details: for B-type Natriuretic Peptide, change: geometric mean; for UACR Change, Mean (SD) / UACR Change, Median / UACR Final, Mean (SD) / UACR Final, Median: enrichment atrasentan
Experimental: A double-blind, randomized, placebo-controlled trial of DKD patients was conducted at 689 sites in 41 countries. The trial was conducted in two phases, an enrichment period and a double-blind treatment period. For the enrichment period, eligible patients were 18-85 years old with type 2 diabetes, an estimated glomerular filtration rate (eGFR) of 25-75 mL/min per 1.73 m^2 of body surface area, a urine albumin-to-creatinine ratio (UACR) of 300-5000 mg/g, a serum albumin of at least 25 g/L, a brain natriuretic peptide (BNP) concentration (level) of no more than 200 pg/mL, a serum potassium of at least 3 to 5 mmol/L, and systolic blood pressure of 110-180 mm Hg. The patients were required to receive a stable, recommended or maximally tolerated dose of an ACE inhibitor or ARB for at least four weeks prior to beginning the enrichment period. Patients also received a diuretic prior to beginning the enrichment period. Exclusion criteria included: a diagnosis of or previous hospital admission for heart failure, a history of severe peripheral or facial edema, diagnosis of type 1 diabetes, history of pulmonary hypertension, pulmonary fibrosis, or any lung diseases requiring oxygen therapy, and known non-diabetic kidney disease. See Heerspink et al., Lancet 393:1937-1947 (2019).
See Heerspink et al., Diabetes Obes Metab., 20:1829-1835 (2018). 42 responder patients and 9 patients in the non-responder group had used a SGLT-2 inhibitor at the start of enrichment. […] It was concluded that the UACR reduction was consistent in both groups.
Referring to the following Table 1, case-control matched cohort data from the study is shown.
SGLT-2 inhibitors included canagliflozin (N=6), empagliflozin (N=4), dapagliflozin (N=3), and luseogliflozin (N=1).
Change in body weight was used as a surrogate for fluid retention. See, e.g., Hoekman, et al., Clin. J. Am. Soc. Nephrol. 2013; 9(3):490-498. The change in BNP was monitored as an additional surrogate for fluid retention (each 1 kg increase in body weight during the enrichment period was associated with a 7.3% increase in BNP (p-value<0.001)).

[4] = atrasentan group, treatment period
[5] = of 1,325 patients, atrasentan 0.75 mg orally daily
[6] = of 1,325 responders, atrasentan 0.75 mg orally daily, median follow-up 2.2 years
[7] = Table 2, case-control matched cohort (N = 14 vs N = 42), enrichment period
[8] = Table 5, combination matched cohort (N = 14 vs N = 42), enrichment period
[9] = Table 6, combination (N = 14) vs all atrasentan alone subjects (N = 5093), enrichment period
[10] = No prior or concomitant SGLT2, N 4768
[11] = Prior and concomitant sGLT2, N 5

In the case of `CCCCN(CCCC)C(=O)CN1C[C@H](c2ccc3c(c2)OCO3)[C@@H](C(=O)O)[C@@H]1c1ccc(OC)cc1` [Atrasentan, (2R,3R,4S)-4-(1,3-benzodioxol-5-yl)-1-[2-(dibutylamino)-2-oxoethyl]-2-(4-methoxyphenyl)pyrrolidine-3-carboxylic acid], the “change in UACR from baseline” value (DKD patients [1]; non-responders, with concomitant SGLT-2 inhibitor use) is listed as “+10.4%”, the “change in UACR from baseline” value (DKD patients [1]; non-responders, without concomitant SGLT-2 inhibitor use) is listed as −1.3% and the “change in UACR from baseline” value (DKD patients [1]; responders, with concomitant SGLT-2 inhibitor use) is listed as −53.2%. The “change in UACR from baseline” value (DKD patients [1]; responders, without concomitant SGLT-2 inhibitor use) was −48.8%, the “fluid retention and anemia adverse events” value (DKD patients [2]; atrasentan group compared with placebo group) was “more frequent” and the “patients who died, number” value (DKD patients [2]; [4]) was 58 patients. For the same compound, the “patients who died, percent” value (DKD patients [2]; [4]) was 4.4%, the “hospital admission for heart failure, number of patients” value (DKD patients [2]; [5]) was 47 patients and the “hospital admission for heart failure, percent of patients” value (DKD patients [2]; [5]) was 3.5%. The “patients with a primary composite renal endpoint event (doubling of serum creatinine or ESRD), number” value (DKD patients [2]; [6]) was 79 patients, the “patients with a primary composite renal endpoint event (doubling of serum creatinine or ESRD), percent” value (DKD patients [2]; [6]) was 6.0% and the “Change in B-type Natriuretic Peptide (fluid retention)” value (DKD patients [3]; [7]) was 6.9%. For the same compound, the “Change in Systolic Blood Pressure (renal efficacy)” value (DKD patients [3]; [7]) was −9.2 mmHg, the “Change in body weight (fluid retention)” value (DKD patients [3]; [7]) was 1.1 kg and the “Change in eGFR (renal efficacy)” value (DKD patients [3]; [7]) was −0.6 ml/min/1.73 m^2. For the same compound, the “Change in hematocrit (fluid retention)” value (DKD patients [3]; [7]) was −2.5%, the “Change in hemoglobin (fluid retention)” value (DKD patients [3]; [7]) was -0.9 g/dL and the “Body weight, change” value (DKD patients [3]; [8]) was 0.6 kg. For the same compound, the “Systolic Blood Pressure, change” value (DKD patients [3]; [8]) was −6.7 mmHg, the “eGFR, change” value (DKD patients [3]; [8]) was −2.1 ml/min/1.73 m^2 and the “B-type Natriuretic Peptide, change” value (DKD patients [3]; [8]) was 5.1%. For the same compound, the “Body weight, change” value (DKD patients [3]; [9]) was 0.6 kg, the “Systolic Blood Pressure, change” value (DKD patients [3]; [9]) was −4.7 mmHg and the “eGFR, change” value (DKD patients [3]; [9]) was −1.0 ml/min/1.73 m^2. The “B-type Natriuretic Peptide, change” value (DKD patients [3]; [9]) was 8.3%, the “body weight increased by” value (DKD patients [3]; after six weeks, matched cohort, atrasentan alone) was 0.6 kg and the “UACR Change, Mean (SD)” value (DKD patients [3]; Concomitant sGLT2 only, N 64) was −469.92 (680.739). The “UACR Change, Median” value (DKD patients [3]; Concomitant sGLT2 only, N 64) was −311.00, the “UACR Final, Mean (SD)” value (DKD patients [3]; Concomitant sGLT2 only, N 64) was 809.47 (956.422) and the “UACR Final, Median” value (DKD patients [3]; Concomitant sGLT2 only, N 64) was 437.50. For the same compound, the “UACR Change, Mean (SD)” value (DKD patients [3]; [10]) was −365.00 (1213.365), the “UACR Change, Median” value (DKD patients [3]; [10]) was −257.00 and the “UACR Final, Mean (SD)” value (DKD patients [3]; [10]) was 891.95 (1352.518). The “UACR Final, Median” value (DKD patients [3]; [10]) was 540.16, the “UACR Change, Mean (SD)” value (DKD patients [3]; Prior SGLT2 only, N 6) was −97.80 (194.266) and the “UACR Change, Median” value (DKD patients [3]; Prior SGLT2 only, N 6) was −101.00. The “UACR Final, Mean (SD)” value (DKD patients [3]; Prior SGLT2 only, N 6) was 1457.19 (1448.751), the “UACR Final, Median” value (DKD patients [3]; Prior SGLT2 only, N 6) was 939.56 and the “UACR Change, Mean (SD)” value (DKD patients [3]; [11]) was −109.71 (366.699). The “UACR Change, Median” value (DKD patients [3]; [11]) was −261.00, the “UACR Final, Mean (SD)” value (DKD patients [3]; [11]) was 379.37 (556.751) and the “UACR Final, Median” value (DKD patients [3]; [11]) was 136.00.
